Source: patent publication US7470707B2, “Crystalline monohydrate clopidogrel naphthalenedisulfonate and process of preparation” (Hanmi Pharm. Co., Ltd, priority 2004, dated 2008)
Where a name gives a salt, the structure may show the parent alone.

How the values were obtained:
[1] = orally administered to rat; cited from earlier work
[2] = 60° C. temperature and 75% relative humidity; resulting in gum type or liquefied form
Excerpt: European Patent No. 281,459 B1 and U.S. Pat. No. 4,847,265 disclose a number of acid addition salts of clopidogrel prepared using various inorganic or organic acids.

| Compound | LD50 [1] | Hygroscopicity [2] |
| --- | --- | --- |
| O=S(=O)(O)c1cccc2c(S(=O)(=O)O)cccc12 [1,5-naphthalenedisulfonic acid] | 2,420 mg/kg | – |
| Br [hydrobromide] | – | highly hygroscopic |
| hydrochloride | – | highly hygroscopic |
